The values below come from ChEMBL document CHEMBL4417631, “Oral peptide inhibitors of interleukin-23 receptor and their use to treat inflammatory bowel diseases” (2017).

One may read the half-life as the time in which the quantity being followed falls by half. The IC50 is the concentration at which inhibition is half-maximal.

Data set [1] can be described thus: Half life in simulated gastric fluid at 20 uM by LC-MS/MS analysis. Format: ADME.
Data set [2] is described as follows: Inhibition of interleukin-23 binding to rat interleukin-23 receptor incubated for 2 hrs by competitive binding ELISA. (In general: In an ELISA, binding on a coated surface is turned into a signal by an enzyme label.)
Data set [3] in a line: Half life in simulated intestinal fluid at 20 uM by LC-MS/MS analysis. The class given is ADME.
For data set [4], the target named is T1, Interleukin-23 receptor (Homo sapiens, UniProt Q5VWK5).
T1 sequence (Q5VWK5 whole entry): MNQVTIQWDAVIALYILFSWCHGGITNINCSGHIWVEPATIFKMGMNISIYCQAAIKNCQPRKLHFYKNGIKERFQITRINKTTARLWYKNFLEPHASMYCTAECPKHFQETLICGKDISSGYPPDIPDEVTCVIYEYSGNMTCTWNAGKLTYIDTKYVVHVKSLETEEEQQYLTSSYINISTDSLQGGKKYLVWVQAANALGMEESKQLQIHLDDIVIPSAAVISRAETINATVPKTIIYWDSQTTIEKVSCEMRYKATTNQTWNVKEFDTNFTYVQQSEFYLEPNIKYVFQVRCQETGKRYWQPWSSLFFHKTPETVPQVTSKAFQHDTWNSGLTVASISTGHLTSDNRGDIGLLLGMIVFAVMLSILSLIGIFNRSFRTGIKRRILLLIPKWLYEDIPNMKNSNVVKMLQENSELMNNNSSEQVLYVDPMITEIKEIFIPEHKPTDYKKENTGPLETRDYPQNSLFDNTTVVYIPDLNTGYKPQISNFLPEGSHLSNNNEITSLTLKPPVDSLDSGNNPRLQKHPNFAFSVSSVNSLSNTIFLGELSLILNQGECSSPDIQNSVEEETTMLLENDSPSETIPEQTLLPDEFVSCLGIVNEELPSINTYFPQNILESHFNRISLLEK
The data set is described as follows: Inhibition of interleukin-23 binding to human interleukin-23 receptor incubated for 2 hrs by competitive binding ELISA.

For data set [5], the target named is T1, Interleukin-23 receptor. The data set is described as follows: Inhibition of interleukin-23 receptor in human DB cells assessed as reduction in IL-23-stimulated STAT3 phosphorylation incubated for 30 mins by HTRF assay. Format: cell-based.

Turning to `COc1ccc(C[C@H](NC(=O)[C@@H](NC(=O)[C@H](CCC(N)=O)NC(=O)[C@H](Cc2c[nH]c3ccccc23)NC(=O)[C@@H](NC(=O)[C@H](CCC(N)=O)NC(=O)[C@@H](NC(=O)CCC(=O)O)C(C)(C)S)[C@@H](C)O)C(C)(C)S)C(=O)N[C@@H](Cc2ccc3ccccc3c2)C(=O)N[C@@](C)(CCCCN)C(=O)N[C@@H](CCCCNC(C)=O)C(=O)N[C@@H](CC(N)=O)C(=O)NCC(N)=O)cc1`, the half-life at 20 µM in data set [1] is 3 to 6 h; in data set [3], over 6 h. The IC50 was 25 to 100 nM in data set [2], 25 to 100 nM on Interleukin-23 receptor [4] and under 10 nM at Interleukin-23 receptor [5].
On to `COc1ccc(C[C@H](NC(=O)[C@@H](NC(=O)[C@H](CCC(N)=O)NC(=O)[C@H](Cc2c[nH]c3ccccc23)NC(=O)[C@@H](NC(=O)[C@H](CCC(N)=O)NC(=O)[C@@H](NC(C)=O)C(C)(C)S)[C@@H](C)O)C(C)(C)S)C(=O)N[C@@H](Cc2ccc3ccccc3c2)C(=O)N[C@@](C)(CCCCN)C(=O)N[C@@H](CCCCNC(C)=O)C(=O)N[C@@H](CC(N)=O)C(=O)NCC(N)=O)cc1`, for which the half-life at 20 µM in data set [1] and in data set [3] was over 6 h in each case. In addition, the IC50 in data set [2] is 25 to 100 nM; at Interleukin-23 receptor [4], 25 to 100 nM; on Interleukin-23 receptor [5], under 10 nM.
Consider `COc1ccc(C[C@H](NC(=O)[C@H]2NC(=O)[C@H](CCC(N)=O)NC(=O)[C@H](Cc3c[nH]c4ccccc34)NC(=O)[C@H]([C@@H](C)O)NC(=O)[C@H](CCC(N)=O)NC(=O)[C@@H](NC(C)=O)CCSC2(C)C)C(=O)N[C@@H](Cc2ccc3ccccc3c2)C(=O)N[C@@](C)(CCCCN)C(=O)N[C@@H](CCCCNC(C)=O)C(=O)N[C@@H](CC(N)=O)C(=O)NCC(N)=O)cc1`, for which the half-life at 20 µM in data set [1] is 2 to 3 h; in data set [3], 3 to 6 h. For the same compound, the IC50 lay within 100 to 1000 nM in data set [2], 25 to 100 nM on Interleukin-23 receptor [4] and 25 to 100 nM at Interleukin-23 receptor [5].
Turning to `COc1ccc(C[C@H](NC(=O)[C@@H]2CSCC[C@H](NC(C)=O)C(=O)N[C@@H](CCC(N)=O)C(=O)N[C@@H]([C@@H](C)O)C(=O)N[C@@H](Cc3c[nH]c4ccccc34)C(=O)N[C@@H](CCC(N)=O)C(=O)N2)C(=O)N[C@@H](Cc2c[nH]c3ccccc23)C(=O)N[C@@](C)(CCCCN)C(=O)N[C@@H](CCCCNC(C)=O)C(=O)N[C@@H](CC(N)=O)C(=O)NCC(N)=O)cc1`, the values for the half-life at 20 µM in data set [1] and in data set [3] were under 1 h and over 6 h, respectively. The IC50 (in data set [2]; at Interleukin-23 receptor [4]; on Interleukin-23 receptor [5]) was 10 to 25 nM each time.
As for `CC(=O)N[C@H](C(=O)N[C@@H](CCC(N)=O)C(=O)N[C@H](C(=O)N[C@@H](Cc1c[nH]c2ccccc12)C(=O)N[C@@H](CCC(N)=O)C(=O)N[C@H](C(=O)N[C@@H](Cc1ccc(OCCN)cc1)C(=O)N[C@@H](Cc1ccc2ccccc2c1)C(=O)N[C@@](C)(CCCCN)C(=O)N[C@@H](CCC(=O)O)C(=O)N[C@@H](CC(N)=O)C(=O)N[C@@H](C)C(N)=O)C(C)(C)S)[C@@H](C)O)C(C)(C)S`, the half-life at 20 µM in data set [1] and in data set [3] was over 6 h in each case. For the same compound, the figures for the IC50 (in data set [2]; on Interleukin-23 receptor [4]; at Interleukin-23 receptor [5]) were 25 to 100 nM, under 10 nM and under 10 nM, respectively.
For `CC(=O)N[C@H](CCC(=O)O)C(=O)N[C@H]1CCSC[C@@H](C(=O)N[C@@H](Cc2ccc(OCCN)cc2)C(=O)N[C@@H](Cc2ccc3ccccc3c2)C(=O)N[C@@](C)(CCCCN)C(=O)N[C@@H](CCC(=O)O)C(=O)N[C@@H](CC(N)=O)C(=O)N[C@@H](CC(N)=O)C(N)=O)NC(=O)[C@H](CCC(N)=O)NC(=O)[C@H](Cc2c[nH]c3ccccc23)NC(=O)[C@H]([C@@H](C)O)NC(=O)[C@H](CCC(N)=O)NC1=O`, the half-life at 20 µM in data set [1] is 1 to 2 h; in data set [3], over 6 h. Moreover, the IC50 (in data set [2]; on Interleukin-23 receptor [4]; on Interleukin-23 receptor [5]) was under 10 nM each time.
Consider `COc1ccc(C[C@H](NC(=O)[C@@H]2CSCC[C@H](NC(C)=O)C(=O)N[C@@H](CCC(N)=O)C(=O)N[C@@H]([C@@H](C)O)C(=O)N[C@@H](Cc3c[nH]c4ccccc34)C(=O)N[C@@H](CCC(N)=O)C(=O)N2)C(=O)N[C@@H](Cc2c[nH]c3ccccc23)C(=O)N[C@@](C)(CCCN)C(=O)N[C@@H](CCC(=O)O)C(=O)N[C@@H](CC(N)=O)C(=O)NCC(N)=O)cc1`, for which the half-life at 20 µM in data set [1] was under 1 h; in data set [3] it was 3 to 6 h. The IC50 in data set [2] is 25 to 100 nM; on Interleukin-23 receptor [4], 25 to 100 nM; at Interleukin-23 receptor [5], under 10 nM.
With `COc1ccc(C[C@H](NC(=O)[C@@H]2CSCC[C@H](NC(C)=O)C(=O)N[C@@H](CCC(N)=O)C(=O)N[C@@H]([C@@H](C)O)C(=O)N[C@@H](Cc3c[nH]c4ccccc34)C(=O)N[C@@H](CCC(N)=O)C(=O)N2)C(=O)N[C@@H](Cc2ccc3ccccc3c2)C(=O)N[C@@](C)(CCCN)C(=O)N[C@@H](CCC(=O)O)C(=O)N[C@@H](CC(N)=O)C(=O)NCC(N)=O)cc1`, the figures for the half-life at 20 µM in data set [1] and in data set [3] were under 1 h and 2 to 3 h, respectively. Further, the IC50 in data set [2] was 25 to 100 nM; at Interleukin-23 receptor [4], 10 to 25 nM; at Interleukin-23 receptor [5], under 10 nM.
Taken in the same sequence, the figures for `CC(=O)N[C@H]1CCSC[C@@H](C(=O)N[C@@H](Cc2ccc(OCCN)cc2)C(=O)N[C@@H](Cc2ccc3ccccc3c2)C(=O)N[C@@](C)(CCCCN)C(=O)N[C@@H](CCC(=O)O)C(=O)N[C@@H](CC(N)=O)C(=O)NCC(N)=O)NC(=O)[C@H](CCC(N)=O)NC(=O)[C@H](Cc2c[nH]c3ccccc23)NC(=O)[C@H]([C@@H](C)O)NC(=O)[C@H](CCC(N)=O)NC1=O` were over 6 h, over 6 h, under 10 nM, under 10 nM and under 10 nM.
Consider `CC(=O)NCCCC[C@H](NC(=O)[C@](C)(CCCCN)NC(=O)[C@H](Cc1ccc2ccccc2c1)NC(=O)[C@H](Cc1ccc(OCCN)cc1)NC(=O)[C@@H](NC(=O)[C@H](CCC(N)=O)NC(=O)[C@H](Cc1c[nH]c2ccccc12)NC(=O)[C@@H](NC(=O)[C@H](CCC(N)=O)NC(=O)[C@@H](NC(C)=O)C(C)(C)S)[C@@H](C)O)C(C)(C)S)C(=O)N[C@@H](CC(N)=O)C(=O)N[C@@H](CC(N)=O)C(N)=O`, for which the half-life at 20 µM in data set [1] and in data set [3] was over 6 h throughout. In addition, the IC50 in data set [2] was 10 to 25 nM; at Interleukin-23 receptor [4] it was under 10 nM; at Interleukin-23 receptor [5], under 10 nM.
`COc1ccc(C[C@H](NC(=O)[C@@H]2CSCC[C@H](NC(C)=O)C(=O)N[C@@H](CCC(N)=O)C(=O)N[C@@H]([C@@H](C)O)C(=O)N[C@@H](Cc3c[nH]c4ccccc34)C(=O)N[C@@H](CCC(N)=O)C(=O)N2)C(=O)N[C@@H](Cc2ccc3ccccc3c2)C(=O)N[C@@](C)(CCCN)C(=O)N[C@@H](CCCCNC(C)=O)C(=O)N[C@@H](CC(N)=O)C(=O)NCC(N)=O)cc1`: the half-life at 20 µM in data set [1] is under 1 h; in data set [3], 2 to 3 h. For the same compound, the IC50 was 10 to 25 nM in data set [2], 10 to 25 nM at Interleukin-23 receptor [4] and under 10 nM on Interleukin-23 receptor [5].
On to `CC(=O)NCCOc1ccc(C[C@H](NC(=O)[C@@H]2CSCC[C@H](NC(C)=O)C(=O)N[C@@H](CCC(N)=O)C(=O)N[C@@H]([C@@H](C)O)C(=O)N[C@@H](Cc3c[nH]c4ccccc34)C(=O)N[C@@H](CCC(N)=O)C(=O)N2)C(=O)N[C@@H](Cc2ccc3ccccc3c2)C(=O)N[C@@](C)(CCCCN)C(=O)N[C@@H](CCC(=O)O)C(=O)N[C@@H](CC(N)=O)C(=O)NCC(N)=O)cc1`, for which the half-life at 20 µM was under 1 h in data set [1] and 1 to 2 h in data set [3]. Moreover, the IC50 (in data set [2]; on Interleukin-23 receptor [4]; on Interleukin-23 receptor [5]) was under 10 nM in each case.
Take `CC(=O)NCCCC[C@H](NC(=O)[C@](C)(CCCCN)NC(=O)[C@H](Cc1ccc2ccccc2c1)NC(=O)[C@H](Cc1ccc(OCCN)cc1)NC(=O)[C@@H]1CSCC[C@H](NC(=O)CCC(=O)O)C(=O)N[C@@H](CCC(N)=O)C(=O)N[C@@H]([C@@H](C)O)C(=O)N[C@@H](Cc2c[nH]c3ccccc23)C(=O)N[C@@H](CCC(N)=O)C(=O)N1)C(=O)N[C@@H](CC(N)=O)C(=O)NCC(N)=O`: the half-life at 20 µM was 3 to 6 h in data set [1] and over 6 h in data set [3]. The IC50 (in data set [2]; on Interleukin-23 receptor [4]; at Interleukin-23 receptor [5]) was under 10 nM throughout.
As for `CC(=O)N[C@H](C(=O)N[C@@H](CCC(N)=O)C(=O)N[C@H](C(=O)N[C@@H](Cc1c[nH]c2ccccc12)C(=O)N[C@@H](CCC(N)=O)C(=O)N[C@H](C(=O)N[C@@H](Cc1ccc(OCCN)cc1)C(=O)N[C@@H](Cc1ccc2ccccc2c1)C(=O)N[C@@](C)(CC(C)C)C(=O)N[C@@H](CCC(N)=O)C(=O)N[C@@H](CC(N)=O)C(=O)N[C@@H](CC(N)=O)C(N)=O)C(C)(C)S)[C@@H](C)O)C(C)(C)S`, the half-life at 20 µM in data set [1] and in data set [3] was over 6 h throughout. The IC50 (in data set [2]; at Interleukin-23 receptor [4]; at Interleukin-23 receptor [5]) was under 10 nM throughout.
